Experimental findings from patent US20050032873A1, “3-Amino chroman and 2-amino tetralin derivatives” (Wyeth, priority 2003, published 2005) are described below.

For orientation: Ki means the dissociation constant of the complex between target and ligand, obtained from inhibition or displacement. Broadly, the melting point is the temperature, or range, at which the solid turns liquid. What is called EC50 is the concentration needed to bring the measured effect to its halfway point. The low end stands for greater potency, the high end for weaker potency. For orientation: IC50 means the concentration at which inhibition is half-maximal.

Molecules are shown by their SMILES. Counter-ions that a name gives are not always drawn. Like-named read-outs stand apart in the source and are kept apart here.

One data set addresses T1, serotonin transporter (Rattus norvegicus, UniProt P31652).
T1 construct: displace ^3H-paroxetine from male rat cortical membranes; from tissue; host or cells: male rat cortical membranes
The experiment in a line: 5-HT transporter affinity: displacement of 3H-paroxetine from male rat cortical membranes. In kind it is binding. Conditions: displacement of 3H-paroxetine; male rat cortical membranes; read-out: 5-HT Transporter Affinity Ki. In general terms: Loss of bound radioactivity is the signal in a displacement assay; it reports binding, not function.

In data set [1] the target is T2, 5-HT1A receptor (Homo sapiens, UniProt P08908).
T2 sequence (P08908 1-422): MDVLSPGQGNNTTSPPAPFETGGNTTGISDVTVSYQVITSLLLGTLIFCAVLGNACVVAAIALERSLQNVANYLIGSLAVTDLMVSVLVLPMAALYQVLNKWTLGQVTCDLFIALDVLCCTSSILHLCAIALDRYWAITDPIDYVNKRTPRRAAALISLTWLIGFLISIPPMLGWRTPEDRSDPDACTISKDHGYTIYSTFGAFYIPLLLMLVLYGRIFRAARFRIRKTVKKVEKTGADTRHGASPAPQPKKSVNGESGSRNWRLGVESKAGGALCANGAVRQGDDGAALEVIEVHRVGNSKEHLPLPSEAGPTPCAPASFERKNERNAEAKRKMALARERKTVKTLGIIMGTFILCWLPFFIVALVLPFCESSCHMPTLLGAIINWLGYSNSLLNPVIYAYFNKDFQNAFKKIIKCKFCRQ
The experiment in a line: 5-HT1A receptor affinity: displacement of [3H] 8-OH-DPAT. The format is binding. More on the design: expressed in transfected cells. Conditions: for inhibition at 1 µM: read-out: 5-HT1A Receptor Affinity, % @ 1 μM; for Ki: displacement of [3H] 8-OH-DPAT, CHO cells stably transfected with human 5-HT1A receptors, read-out: 5-HT1A Receptor Affinity Ki.

Data set [2] addresses T3, cloned human 5-HT1A receptors (Homo sapiens, UniProt P08908).
T3 construct: expressed in transfected cells
T3 sequence (P08908 1-422): T2 sequence (P08908 1-422)
In words: 35S-GTPγS binding assay, 5-HT1A function. In kind it is biochemical. Conditions: for EC50: agonist potency; for IC50: antagonist potency, reversal of 8-OH-DPAT, read-out: 5-HT1A Function GTPγS IC50.

Data set [3] has as its target T2, 5-HT1A receptor. In words: cAMP accumulation assay, 5-HT1A function. The format is cell-based. Conditions: for EC50: cells marked EC50 (agonist); for Emax: in brackets after EC50 or IC50, read-out: 5-HT1A Function cAMP (Emax); for IC50: cells marked IC50 (antagonist), read-out: 5-HT1A Function cAMP IC50.
Source text: The agonist or antagonist activity at 5-HT1A receptors was established by using two different assays. […] Agonists produce an increase in binding whereas antagonists produce no increase but rather reverse the effects of the standard agonist 8-OH-DPAT. The test compound's maximum stimulatory effect is represented as the Emax, while its potency is defined by the EC50. The test compound's maximum inhibitory effect is represented as the Imax, while its potency is defined by the IC50. The second assay measured cAMP accumulation upon binding of the ligand to the 5-HT1A receptor. […] The test compound's maximum stimulatory or inhibitory effect is represented as the Emax while its potency is defined by either IC50 for an antagonist or EC50 for an agonist. [^3H]-8-OH-DPAT was used to determine maximum agonist or antagonist response in both functional assays.
The mark [4] stands for this setting: maximum stimulatory effect, in brackets after EC50, read-out: 5-HT1A Function GTPγS (Emax).
Setting [5] is: maximum inhibitory effect, in brackets after IC50, read-out: 5-HT1A Function GTPγS (Imax).

T1 sequence (P31652 whole entry): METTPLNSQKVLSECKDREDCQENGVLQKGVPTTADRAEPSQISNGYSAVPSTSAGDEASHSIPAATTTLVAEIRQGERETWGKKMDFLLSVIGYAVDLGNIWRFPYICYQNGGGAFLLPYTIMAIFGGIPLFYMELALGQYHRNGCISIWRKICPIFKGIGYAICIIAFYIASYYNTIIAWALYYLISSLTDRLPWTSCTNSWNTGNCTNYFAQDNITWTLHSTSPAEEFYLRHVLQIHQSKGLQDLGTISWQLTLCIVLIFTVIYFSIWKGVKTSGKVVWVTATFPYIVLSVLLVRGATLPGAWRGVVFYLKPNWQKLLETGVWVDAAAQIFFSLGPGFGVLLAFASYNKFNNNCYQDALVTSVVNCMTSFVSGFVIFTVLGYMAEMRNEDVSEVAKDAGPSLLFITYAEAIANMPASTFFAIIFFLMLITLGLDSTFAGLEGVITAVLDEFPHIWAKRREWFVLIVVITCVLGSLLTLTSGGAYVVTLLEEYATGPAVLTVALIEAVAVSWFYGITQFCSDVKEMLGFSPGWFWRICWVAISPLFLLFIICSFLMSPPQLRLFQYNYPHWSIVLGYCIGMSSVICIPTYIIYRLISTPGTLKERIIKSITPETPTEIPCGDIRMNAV

In turn, `COc1cccc2c(CCNC3COc4c(F)ccc(C(N)=O)c4C3)coc12` (stereo not shown) [Compound 156, 8-fluoro-3-{[2-(7-methoxy-1-benzofuran-3-yl)ethyl]amino}chromane-5-carboxamide] gave a melting point of 172 to 174 °C. Moreover, the Ki on serotonin transporter is 381 nM. At 5-HT1A receptor [1], the inhibition at 1 µM stood at 28%.
The molecule `NC(=O)c1cccc2c1CC(NCCCc1c[nH]c3ccc(F)cc13)CO2` (stereo not shown) [Compound 133, 3-{[3-(5-fluoro-1H-indol-3-yl)propyl]amino}chromane-5-carboxamide] registered a melting point of 153 to 155 °C. In addition, the Ki at serotonin transporter turned out to be 23.6 nM. The response in data set [2] was half-maximal at 3000 nM (EC50). Further, the Emax in data set [2] (setting [4]) is 100%. On 5-HT1A receptor [3], the response was half-maximal at 128 nM (EC50) and the Emax came out at 84%. For the same molecule, the Ki on 5-HT1A receptor [1] stood at 65.1 nM.
The molecule `O=C(O)c1cccc2c1CC(N(CCCc1c[nH]c3c(F)cc(F)cc13)C1CCC1)CO2` (stereo not shown) [Compound 137, 3-{cyclobutyl[3-(5,7-difluoro-1H-indol-3-yl)propyl]amino}chromane-5-carboxylic acid] showed a melting point of 130 to 131 °C. Further, the Ki on serotonin transporter was determined as 421 nM. For the same molecule, on 5-HT1A receptor [1], the inhibition at 1 µM was 0%.
Turning to `COc1cccc2c(CCCCNC3COc4c(F)ccc(C(N)=O)c4C3)coc12` (stereo not shown) [Compound 167, 8-fluoro-3-{[4-(7-methoxy-1-benzofuran-3-yl)butyl]amino}chromane-5-carboxamide], the melting point lay in the range of 138 to 141 °C. The Ki on serotonin transporter came to 44.9 nM. The IC50 in data set [2] is 1820 nM. For the same molecule, the Emax in data set [2] (setting [5]) came out at 100%. For the same molecule, on 5-HT1A receptor [3], the half-inhibitory concentration (IC50) came out at 136 nM and the Emax was found to be 0%. The inhibitory constant (Ki) at 5-HT1A receptor [1] amounted to 31.2 nM.
For the molecule `COc1cccc2c(CCCNC3COc4c(F)ccc(C(N)=O)c4C3)coc12` (stereo not shown) [Compound 161, 8-fluoro-3-{[3-(7-methoxy-1-benzofuran-3-yl)propyl]amino}chromane-5-carboxamide], the melting point lay within 163 to 166 °C. Further, the Ki at serotonin transporter was 234 nM. For the same molecule, in data set [2], the half-maximal inhibitory concentration (IC50) was 3000 nM. Also, the Emax in data set [2] (setting [5]) stood at 100%. Moreover, at 5-HT1A receptor [3], the IC50 stood at 607 nM and the Emax is 0%. Moreover, at 5-HT1A receptor [1], the inhibition constant (Ki) worked out at 43.5 nM.
With `NC(=O)c1cccc2c1CC(N(CCCc1c[nH]c3ccc(F)cc13)C1CCC1)CO2` (stereo not shown) [Compound 134, 3-{cyclobutyl[3-(5-fluoro-1H-indol-3-yl)propyl]amino}chromane-5-carboxamide], the melting point was 102 to 105 °C. Also, the Ki on serotonin transporter was found to be 8.67 nM. In data set [2], a half-maximal effect (EC50) was put at 21.8 nM and the half-inhibitory concentration (IC50) came to 184 nM. Also, the Emax in data set [2] (setting [5]) was found to be 69%. In addition, the Emax in data set [2] (setting [4]) came out at 28%. Also, at 5-HT1A receptor [3], the EC50 was determined as 19.2 nM and the Emax came out at 81%. Further, the Ki on 5-HT1A receptor [1] came out at 1.75 nM.
Take `CCN(C(C)CCc1c[nH]c2ccc(F)cc12)C1COc2c(F)ccc(C(N)=O)c2C1` (single isomer, unassigned; (+)) (as salt: hydrochloride) [Compound 16b, (+)-3-{ethyl[3-(5-fluoro-1H-indol-3-yl)-1-methylpropyl]amino}-8-fluorochromane-5-carboxamide]: the melting point is 135 °C (dec.).
